The target of assay [1] is Tyrosine-protein phosphatase non-receptor type 6 (Homo sapiens, UniProt P29350). The assay is described as follows: Inhibition of SHP1 (unknown origin).
For assay [2], the target named is T1, Tyrosine-protein phosphatase non-receptor type 2 (Homo sapiens, UniProt P17706).
T1 sequence (P17706 whole entry): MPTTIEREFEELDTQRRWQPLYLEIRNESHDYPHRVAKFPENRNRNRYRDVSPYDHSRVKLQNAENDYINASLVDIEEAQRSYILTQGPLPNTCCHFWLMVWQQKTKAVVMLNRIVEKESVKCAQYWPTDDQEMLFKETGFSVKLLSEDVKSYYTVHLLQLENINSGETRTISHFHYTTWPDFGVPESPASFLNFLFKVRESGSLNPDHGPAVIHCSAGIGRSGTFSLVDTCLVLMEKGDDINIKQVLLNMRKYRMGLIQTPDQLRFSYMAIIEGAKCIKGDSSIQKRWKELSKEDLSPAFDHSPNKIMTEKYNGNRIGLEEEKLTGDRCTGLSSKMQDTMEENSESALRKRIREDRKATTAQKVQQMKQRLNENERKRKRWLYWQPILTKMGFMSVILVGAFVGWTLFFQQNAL
The assay is described as follows: Inhibition of TCPTP (unknown origin).

The target of assay [3] is T2, Tyrosine-protein phosphatase non-receptor type 1 (Homo sapiens, UniProt P18031).
T2 sequence (P18031 whole entry): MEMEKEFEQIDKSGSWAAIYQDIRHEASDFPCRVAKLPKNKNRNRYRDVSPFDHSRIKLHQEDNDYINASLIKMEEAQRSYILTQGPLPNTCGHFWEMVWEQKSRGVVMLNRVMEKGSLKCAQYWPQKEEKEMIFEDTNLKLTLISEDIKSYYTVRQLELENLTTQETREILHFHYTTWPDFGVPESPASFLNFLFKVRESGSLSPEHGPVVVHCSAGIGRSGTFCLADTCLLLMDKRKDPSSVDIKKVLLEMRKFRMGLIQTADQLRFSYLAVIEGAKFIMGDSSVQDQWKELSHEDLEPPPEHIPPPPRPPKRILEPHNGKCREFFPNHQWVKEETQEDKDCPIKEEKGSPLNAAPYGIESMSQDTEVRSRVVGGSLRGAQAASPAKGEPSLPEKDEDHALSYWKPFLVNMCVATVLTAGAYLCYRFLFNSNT
The assay is described as follows: Inhibition of PTP1B (unknown origin).

Assay [4] has as its target Receptor-type tyrosine-protein phosphatase F (Homo sapiens, UniProt P10586). As to the kind of experiment: Inhibition of LAR (unknown origin).
Assay [5] addresses T3, Tyrosine-protein phosphatase non-receptor type 11 (Homo sapiens, UniProt Q06124).
T3 sequence (Q06124 whole entry): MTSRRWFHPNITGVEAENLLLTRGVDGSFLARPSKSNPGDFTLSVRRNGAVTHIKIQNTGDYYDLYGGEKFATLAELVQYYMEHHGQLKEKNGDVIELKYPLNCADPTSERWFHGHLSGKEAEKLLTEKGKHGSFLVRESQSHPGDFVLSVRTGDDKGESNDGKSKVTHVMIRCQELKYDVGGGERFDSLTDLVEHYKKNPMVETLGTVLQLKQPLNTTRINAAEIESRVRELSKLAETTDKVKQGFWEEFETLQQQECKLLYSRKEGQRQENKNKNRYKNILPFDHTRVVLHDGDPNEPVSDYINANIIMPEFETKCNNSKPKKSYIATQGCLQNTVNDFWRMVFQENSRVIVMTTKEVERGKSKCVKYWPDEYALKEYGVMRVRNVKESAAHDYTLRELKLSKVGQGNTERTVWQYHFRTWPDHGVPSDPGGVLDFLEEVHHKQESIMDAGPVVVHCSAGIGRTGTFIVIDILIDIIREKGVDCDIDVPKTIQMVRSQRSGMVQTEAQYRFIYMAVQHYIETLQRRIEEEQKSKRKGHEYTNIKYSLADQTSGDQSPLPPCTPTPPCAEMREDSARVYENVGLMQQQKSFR
The assay is described as follows: Inhibition of SHP2 (unknown origin).

The species entered for the next assay is Homo sapiens. As to the kind of experiment: Selectivity ratio of IC50 for TCPTP (unknown origin) to IC50 for PTP1B (unknown origin).

Here are results for 16 compounds from ChEMBL document CHEMBL3400144, “Design and synthesis of novel 1,2-dithiolan-4-yl benzoate derivatives as PTP1B inhibitors” (Bioorg Med Chem Lett, 2015).

Receptor-type tyrosine-protein phosphatase F, sequence (P10586 whole entry): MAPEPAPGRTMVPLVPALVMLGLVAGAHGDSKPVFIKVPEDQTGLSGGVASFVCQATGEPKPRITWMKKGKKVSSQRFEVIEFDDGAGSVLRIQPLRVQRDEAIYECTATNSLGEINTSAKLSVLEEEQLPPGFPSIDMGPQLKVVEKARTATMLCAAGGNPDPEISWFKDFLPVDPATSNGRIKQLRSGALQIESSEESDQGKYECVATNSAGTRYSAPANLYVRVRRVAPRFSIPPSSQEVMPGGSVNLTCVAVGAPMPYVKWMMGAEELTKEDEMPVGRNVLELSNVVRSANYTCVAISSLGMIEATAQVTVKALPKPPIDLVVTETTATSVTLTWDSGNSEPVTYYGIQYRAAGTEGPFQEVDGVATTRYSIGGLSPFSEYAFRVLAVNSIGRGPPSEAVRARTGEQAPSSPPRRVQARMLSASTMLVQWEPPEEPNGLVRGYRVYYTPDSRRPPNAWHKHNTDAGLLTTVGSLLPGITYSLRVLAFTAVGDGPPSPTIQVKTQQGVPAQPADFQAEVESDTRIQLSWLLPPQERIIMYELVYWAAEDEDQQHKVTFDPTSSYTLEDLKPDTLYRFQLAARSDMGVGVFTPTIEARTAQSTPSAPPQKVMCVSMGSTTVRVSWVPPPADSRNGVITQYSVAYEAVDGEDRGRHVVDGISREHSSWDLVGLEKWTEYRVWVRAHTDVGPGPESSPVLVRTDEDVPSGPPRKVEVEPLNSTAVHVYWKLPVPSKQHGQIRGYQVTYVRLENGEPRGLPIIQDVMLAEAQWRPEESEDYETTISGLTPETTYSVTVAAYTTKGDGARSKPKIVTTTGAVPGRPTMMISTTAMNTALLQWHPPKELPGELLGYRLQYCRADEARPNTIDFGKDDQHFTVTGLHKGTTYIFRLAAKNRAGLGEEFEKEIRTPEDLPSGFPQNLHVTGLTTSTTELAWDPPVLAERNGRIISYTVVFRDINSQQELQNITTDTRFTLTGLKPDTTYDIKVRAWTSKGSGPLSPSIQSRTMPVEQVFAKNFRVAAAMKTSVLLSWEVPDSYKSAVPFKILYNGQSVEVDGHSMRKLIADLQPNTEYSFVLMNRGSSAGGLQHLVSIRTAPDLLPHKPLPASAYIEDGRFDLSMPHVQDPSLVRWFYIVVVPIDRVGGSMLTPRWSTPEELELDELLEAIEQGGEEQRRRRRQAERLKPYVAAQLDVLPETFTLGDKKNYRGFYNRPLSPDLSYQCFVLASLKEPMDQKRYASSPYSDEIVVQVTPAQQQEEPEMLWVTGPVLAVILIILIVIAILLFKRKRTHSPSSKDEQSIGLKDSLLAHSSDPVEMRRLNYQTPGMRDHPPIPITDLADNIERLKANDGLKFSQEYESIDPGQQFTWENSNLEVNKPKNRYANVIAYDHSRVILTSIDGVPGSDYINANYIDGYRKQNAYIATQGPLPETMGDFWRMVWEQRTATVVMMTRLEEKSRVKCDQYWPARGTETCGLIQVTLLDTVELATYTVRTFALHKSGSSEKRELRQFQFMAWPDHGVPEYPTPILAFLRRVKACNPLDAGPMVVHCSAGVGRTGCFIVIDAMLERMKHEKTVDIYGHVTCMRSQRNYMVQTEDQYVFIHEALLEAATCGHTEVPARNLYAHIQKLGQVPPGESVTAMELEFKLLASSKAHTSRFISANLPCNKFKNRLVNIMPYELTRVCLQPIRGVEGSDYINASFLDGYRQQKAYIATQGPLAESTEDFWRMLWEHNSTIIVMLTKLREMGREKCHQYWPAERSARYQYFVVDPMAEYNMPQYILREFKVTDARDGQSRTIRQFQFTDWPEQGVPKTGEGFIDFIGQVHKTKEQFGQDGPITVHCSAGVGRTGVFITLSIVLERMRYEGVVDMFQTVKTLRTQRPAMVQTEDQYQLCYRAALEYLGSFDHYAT
Tyrosine-protein phosphatase non-receptor type 6, sequence (P29350 whole entry): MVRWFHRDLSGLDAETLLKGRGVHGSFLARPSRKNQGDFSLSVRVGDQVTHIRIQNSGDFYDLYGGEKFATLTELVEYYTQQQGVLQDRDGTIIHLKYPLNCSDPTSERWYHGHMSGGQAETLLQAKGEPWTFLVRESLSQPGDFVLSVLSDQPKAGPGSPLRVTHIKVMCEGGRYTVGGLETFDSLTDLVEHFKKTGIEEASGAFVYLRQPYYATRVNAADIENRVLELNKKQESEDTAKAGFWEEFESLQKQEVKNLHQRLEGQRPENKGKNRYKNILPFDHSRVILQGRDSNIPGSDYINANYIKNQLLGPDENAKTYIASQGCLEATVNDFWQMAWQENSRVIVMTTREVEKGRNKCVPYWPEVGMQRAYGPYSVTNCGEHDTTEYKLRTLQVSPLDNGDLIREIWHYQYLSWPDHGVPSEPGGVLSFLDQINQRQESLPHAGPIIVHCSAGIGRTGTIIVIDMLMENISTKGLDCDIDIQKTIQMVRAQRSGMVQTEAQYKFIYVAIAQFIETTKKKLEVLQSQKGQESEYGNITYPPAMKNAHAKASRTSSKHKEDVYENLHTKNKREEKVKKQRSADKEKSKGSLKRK

For orientation: IC50 means the concentration needed to halve the response being measured. Consider `O=C(OCCCCC#Cc1ccc(C(=O)OC2CSSC2)cc1)c1ccc([N+](=O)[O-])cc1`, for which the IC50 in assay [1] (read-out: IC50) is 24.9 µM; in assay [2] it was 9.46 µM; in assay [3] (read-out: IC50), 10.1 µM; in assay [4] it was “Not Active”; in assay [5] (read-out: IC50) it was 24.6 µM.

In the case of `COc1ccc(C(=O)OCCCCC#Cc2ccc(C(=O)OC3CSSC3)cc2)c(OC)c1`, the IC50 result is “Not Active” in assay [1]; 20 µM in assay [2]; 4.27 µM in assay [3] (read-out: IC50); “Not Active” in assay [4]; “Not Active” in assay [5]. For the same compound, the Ratio IC50 in the assay listed under Homo sapiens was 5.

In the case of `O=C(OCCCCC#Cc1ccc(C(=O)OC2CSSC2)cc1)c1ccc(F)cc1`, the IC50 was 9.21 µM in assay [1] (read-out: IC50); 4.36 µM in assay [2]; 4.68 µM in assay [3] (read-out: IC50); “Not Active” in assay [4]; 9.41 µM in assay [5] (read-out: IC50).

Take `O=C(OC1CSSC1)c1ccc(OCCCCCCOC(=O)c2cc(Br)ccc2Br)cc1`: the half-inhibitory concentration (IC50) result in assay [1] is “Not Active”; in assay [2], 30.8 µM; in assay [3] (read-out: IC50), 8.85 µM; in assay [4], “Not Active”; in assay [5], “Not Active”.

As for `O=C(OC1CSSC1)c1ccc(C#CCCCCOC(=O)c2cc(Br)ccc2Br)cc1`, the IC50 result in assay [1] was “Not Active”; in assay [2], 1.88 µM; in assay [3] (read-out: IC50), 0.59 µM; in assay [4], “Not Active”; in assay [5] (read-out: IC50), 13.2 µM. Also, in the assay listed under Homo sapiens, the Ratio IC50 was found to be 3.

Turning to `O=C(OCCCCC#Cc1ccc(C(=O)OC2CSSC2)cc1)c1cccc(F)c1`, the IC50 was 10 µM in assay [1] (read-out: IC50); 9.21 µM in assay [2]; 5.18 µM in assay [3] (read-out: IC50); “Not Active” in assay [4]; 8.91 µM in assay [5] (read-out: IC50).

`COc1ccc(C(=O)OCCCCC#Cc2ccc(C(=O)OC3CSSC3)cc2)cc1`: the half-inhibitory concentration (IC50) in assay [1] (read-out: IC50) was 5.13 µM; in assay [2], 4.58 µM; in assay [3] (read-out: IC50) it was 6.55 µM; in assay [4], “Not Active”; in assay [5] (read-out: IC50), 6.64 µM.

As for `O=C(OC1CSSC1)c1ccc(C#CCCCCOC(=O)c2ccccc2F)cc1`, the IC50 is 8.67 µM in assay [1] (read-out: IC50); 6.48 µM in assay [2]; 4.43 µM in assay [3] (read-out: IC50); “Not Active” in assay [4]; 10.5 µM in assay [5] (read-out: IC50).

Turning to `O=C(OC1CSSC1)c1ccc(CCCCCCOC(=O)c2cc(Br)ccc2Br)cc1`, the half-inhibitory concentration (IC50) is 11.1 µM in assay [1] (read-out: IC50); 17.4 µM in assay [2]; 2.68 µM in assay [3] (read-out: IC50); “Not Active” in assay [4]; 9.69 µM in assay [5] (read-out: IC50). Further, the Ratio IC50 in the assay listed under Homo sapiens is greater than 6.

In the case of `O=C(OC1CSSC1)c1ccc(C#CCCOC(=O)c2cc(Br)ccc2Br)cc1`, the IC50 in assay [1] (read-out: IC50) is 15.7 µM; in assay [2], 26.7 µM; in assay [3] (read-out: IC50), 2.73 µM; in assay [4] it was “Not Active”; in assay [5] (read-out: IC50), 8.25 µM. Also, the Ratio IC50 in the assay filed under Homo sapiens was 10.

On to `COc1ccccc1C(=O)OCCCCC#Cc1ccc(C(=O)OC2CSSC2)cc1`, for which the IC50 in assay [1] (read-out: IC50) is 19.3 µM; in assay [2], 23.2 µM; in assay [3] (read-out: IC50) it was 23.5 µM; in assay [4] it was “Not Active”; in assay [5] (read-out: IC50), 18.3 µM.

Regarding `O=C(OCCCCC#Cc1ccc(C(=O)OC2CSSC2)cc1)c1cccc([N+](=O)[O-])c1`, the half-maximal inhibitory concentration (IC50) in assay [1] (read-out: IC50) is 23.6 µM; in assay [2], 12.9 µM; in assay [3] (read-out: IC50), 9.7 µM; in assay [4] it was “Not Active”; in assay [5] (read-out: IC50) it was 22.3 µM.

As to `O=C(OC1CSSC1)c1ccc(OCCOC(=O)c2cc(Br)ccc2Br)cc1`, the IC50 entry in assay [1] is “Not Active”; in assay [2], 35 µM; in assay [3] (read-out: IC50), 7.26 µM; in assay [4], “Not Active”; in assay [5], “Not Active”.

`COc1cccc(C(=O)OCCCCC#Cc2ccc(C(=O)OC3CSSC3)cc2)c1`: the IC50 in assay [1] (read-out: IC50) is 38.4 µM; in assay [2], 26.3 µM; in assay [3] (read-out: IC50), 26.3 µM; in assay [4], “Not Active”; in assay [5] (read-out: IC50), 34.6 µM.

For the compound `O=C(OC1CSSC1)c1ccc(C#CCCCCOC(=O)c2ccccc2[N+](=O)[O-])cc1`, the IC50 in assay [1] (read-out: IC50) was 9.25 µM; in assay [2] it was 7.83 µM; in assay [3] (read-out: IC50), 9.12 µM; in assay [4], “Not Active”; in assay [5] (read-out: IC50) it was 11.5 µM.

`O=C(OC1CSSC1)c1ccc(OCCCOC(=O)c2cc(Br)ccc2Br)cc1`: the half-maximal inhibitory concentration (IC50) was 32.2 µM in assay [1] (read-out: IC50); 27.6 µM in assay [2]; “Not Active” in assay [3]; “Not Active” in assay [4]; 10.9 µM in assay [5] (read-out: IC50).
